Measurements from US20220017863A1, “SIRT2-ABLATED CHIMERIC T CELLS” (H. Lee Moffitt Cancer Center and Research Institute, Inc., priority 2019, published 2022).
Entries after “also recorded” stand apart in the source; their conditions may differ.

Experiments:
Type in all cases: cell-based
human TILs [1] = test: Seahorse extracellular flux analysis of CD3-stimulated human TILs from NSCLC patients; details: anti-CD3 plus AGK2 vs vehicle, 48 hr
Protocol: Human tumor infiltrating lymphocytes (hTILs) samples isolated from tumor biopsies of patients with nonsmall cell lung cancer (NSCLC) were generously provided by Dr. Antonia lab (Moffitt Cancer Center). All human samples remained totally de-identified and no Institutional Review Board (IRB) approval was needed.
hTILs were maintained in RPMI 1640 Medium, supplemented with 10% human AB serum (Valley Biomedical, Inc.), 1 mM Hepes (Sigma-Aldrich), 1% P/S (Thomas Scientific Inc), 50 μg/ml Gentamicin (ThermoFisher Scientific), 50 μM […] (ThermoFisher Scientific) and 6000 U/ml of recombinant human IL-2 (Peprotech).
Extracellular acidification rates (ECAR) were measured using the Seahorse XF analyzer (Agilent). […]
For GST, ECAR was measured under basal conditions and in response to 10 mM glucose, 1 μM oligomycin and 50 mM 2-DG successively to calculate basal glycolytic rate, glycolytic capacity (in response to oligomycin), and glycolytic reserve (glycolytic capacity−basal rate). For GRA, ECAR was measured under basal conditions and in response to 0.5 μM rotenone+0.5 μM antimycin A and 50 mM 2-DG successively to calculate basal glycolysis and compensatory glycolysis (in response to rotenone+antimycin A). Results were normalized to total protein quantified using Pierce™ BCA Protein Assay Kit (ThermoFisher Scientific). […]

human TILs [2] = test: IFN-γ ELISPOT on human TILs from NSCLC patients; details: AGK2 vs vehicle, 5 patient samples
human CD3+ T cells [3] = test: IFN-γ ELISPOT on human CD3+ T cells from healthy donors; details: inhibitor vs vehicle, 48 hr
human CD3+ T cells [4] = test: Seahorse extracellular flux analysis of CD3-stimulated human CD3+ T cells from healthy donors; details: anti-CD3 plus inhibitor vs vehicle, 48 hr
Protocol: Human peripheral blood mononuclear cells (PBMC) were obtained from healthy donors by density gradient centrifugation using Ficoll-Paque™ PLUS Media (GE Healthcare). CD3^+ lymphocytes were negatively enriched using human Pan T cell isolation Kit™ (Miltenyi Biotec).
Extracellular acidification rates (ECAR) were measured using the Seahorse XF analyzer (Agilent). Glycolysis Stress Test (GST) and glycolytic rate assay (GRA) were performed according to kit manufacturer's instructions.
The day of the assay, 2×10^5 activated T cells were plated in Cell-Tak (Corning)-coated XF96 plates in XF media (XF RPMI Medium pH 7.4 containing 2 mM L-glutamine only for GST or supplemented with 10 mM glucose, 2 mM L-glutamine and 1 mM sodium pyruvate for GRA test, all from Agilent technologies) via centrifugation to ensure cell attachment. Cells were equilibrated for 1 hour in a non-CO2 incubator before starting the assay.
For GST, ECAR was measured under basal conditions and in response to 10 mM glucose, 1 μM oligomycin and 50 mM 2-DG successively to calculate basal glycolytic rate, glycolytic capacity (in response to oligomycin), and glycolytic reserve (glycolytic capacity−basal rate). For GRA, ECAR was measured under basal conditions and in response to 0.5 μM rotenone+0.5 μM antimycin A and 50 mM 2-DG successively to calculate basal glycolysis and compensatory glycolysis (in response to rotenone+antimycin A). Results were normalized to total protein quantified using Pierce™ BCA Protein Assay Kit (ThermoFisher Scientific).
Human peripheral blood mononuclear cells (PBMC) were obtained from healthy donors by density gradient centrifugation using Ficoll-Paque™ PLUS Media (GE Healthcare). CD3^+ lymphocytes were negatively enriched using human Pan T cell isolation Kit™ (Miltenyi Biotec). […].
Extracellular acidification rate (ECAR) and oxygen consumption rate (OCR) were measured using the Seahorse XF analyzer (Agilent technologies). Glycolysis Stress Test (GST), glycolytic rate assay (GRA) and mitochondrial stress test (MST) were purchased from Agilent technologies and performed according to the kit manufacturer's instructions. […]
For GST, ECAR and OCR were measured under basal conditions and in response to 10 mM glucose, 1 μM oligomycin and 50 mM 2-DG successively to calculate basal glycolytic rate, glycolytic capacity (in response to oligomycin), and glycolytic reserve (glycolytic capacity basal rate).
For GRA, ECAR and OCR were measured under basal conditions and in response to 0.5 μM roteone/antimycin A and 50 mM 2-DG successively to calculate basal glycolysis and compensatory glycolysis (in response to rotenone/antimycin A).

In the case of `N#C/C(=C/c1ccc(-c2cc(Cl)ccc2Cl)o1)C(=O)Nc1cccc2ncccc12` [AGK2], the “OxPhos (OCR)” value (human TILs [1]; human TILs from 5 NSCLC patients) was “increased”, the “aerobic glycolysis (ECAR)” value (human TILs [1]; human TILs from NSCLC patients, 5 patient samples) was “increases” and the “IFN-γ production (effector function)” value (human TILs [2]) was “increases”. For the same compound, the “IFN-γ production (effector function)” value (human CD3+ T cells [3]) was “increases; also recorded: augments”, the OxPhos (human CD3+ T cells [4]) was “increased” and the “aerobic glycolysis (ECAR/PER)” value (human CD3+ T cells [4]) was “increases; also recorded: augments”.
